{"source": "paper PMC3823425", "about": "(Journal of Cellular and Molecular Medicine, 2012)", "key": {"PDGFRα [1]": {"molecular_target": "T1, PDGFRα (Homo sapiens, UniProt P16234)", "T1 sequence (P16234 24-1089, species assumed)": "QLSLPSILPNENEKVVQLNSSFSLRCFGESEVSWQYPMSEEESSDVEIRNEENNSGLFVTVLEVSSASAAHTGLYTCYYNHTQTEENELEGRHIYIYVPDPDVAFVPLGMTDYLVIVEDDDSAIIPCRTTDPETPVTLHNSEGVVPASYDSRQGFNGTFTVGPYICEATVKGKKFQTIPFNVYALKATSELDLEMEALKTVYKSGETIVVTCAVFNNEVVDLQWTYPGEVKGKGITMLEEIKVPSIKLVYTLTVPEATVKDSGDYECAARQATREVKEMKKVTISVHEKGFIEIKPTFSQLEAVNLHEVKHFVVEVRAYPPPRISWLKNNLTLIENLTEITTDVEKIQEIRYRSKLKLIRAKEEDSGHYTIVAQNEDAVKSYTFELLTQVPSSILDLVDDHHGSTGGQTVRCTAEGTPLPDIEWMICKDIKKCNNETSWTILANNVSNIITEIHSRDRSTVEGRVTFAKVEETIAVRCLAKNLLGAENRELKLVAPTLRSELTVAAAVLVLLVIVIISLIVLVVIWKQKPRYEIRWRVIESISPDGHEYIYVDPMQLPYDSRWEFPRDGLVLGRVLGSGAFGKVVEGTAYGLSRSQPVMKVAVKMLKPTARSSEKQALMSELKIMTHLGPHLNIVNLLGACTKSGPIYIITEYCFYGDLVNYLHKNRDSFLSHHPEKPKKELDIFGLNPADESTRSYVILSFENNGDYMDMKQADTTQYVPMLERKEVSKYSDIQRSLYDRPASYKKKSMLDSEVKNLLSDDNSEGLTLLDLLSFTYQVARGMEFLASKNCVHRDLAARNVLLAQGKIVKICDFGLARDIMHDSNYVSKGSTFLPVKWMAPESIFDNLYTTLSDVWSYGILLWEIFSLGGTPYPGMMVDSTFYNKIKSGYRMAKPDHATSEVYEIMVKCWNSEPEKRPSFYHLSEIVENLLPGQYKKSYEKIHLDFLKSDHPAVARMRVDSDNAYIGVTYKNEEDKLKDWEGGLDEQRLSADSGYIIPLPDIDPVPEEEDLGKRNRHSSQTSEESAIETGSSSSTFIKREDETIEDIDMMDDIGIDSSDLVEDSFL", "conditions": "read-out: IC50 PDGFRα phosphorylation in vitro assay; ref 17 Bello et al.; cited from earlier work"}, "PDGFRβ [2]": {"molecular_target": "T2, PDGFRβ (Homo sapiens, UniProt P09619)", "T2 sequence (P09619 33-1106, species assumed)": "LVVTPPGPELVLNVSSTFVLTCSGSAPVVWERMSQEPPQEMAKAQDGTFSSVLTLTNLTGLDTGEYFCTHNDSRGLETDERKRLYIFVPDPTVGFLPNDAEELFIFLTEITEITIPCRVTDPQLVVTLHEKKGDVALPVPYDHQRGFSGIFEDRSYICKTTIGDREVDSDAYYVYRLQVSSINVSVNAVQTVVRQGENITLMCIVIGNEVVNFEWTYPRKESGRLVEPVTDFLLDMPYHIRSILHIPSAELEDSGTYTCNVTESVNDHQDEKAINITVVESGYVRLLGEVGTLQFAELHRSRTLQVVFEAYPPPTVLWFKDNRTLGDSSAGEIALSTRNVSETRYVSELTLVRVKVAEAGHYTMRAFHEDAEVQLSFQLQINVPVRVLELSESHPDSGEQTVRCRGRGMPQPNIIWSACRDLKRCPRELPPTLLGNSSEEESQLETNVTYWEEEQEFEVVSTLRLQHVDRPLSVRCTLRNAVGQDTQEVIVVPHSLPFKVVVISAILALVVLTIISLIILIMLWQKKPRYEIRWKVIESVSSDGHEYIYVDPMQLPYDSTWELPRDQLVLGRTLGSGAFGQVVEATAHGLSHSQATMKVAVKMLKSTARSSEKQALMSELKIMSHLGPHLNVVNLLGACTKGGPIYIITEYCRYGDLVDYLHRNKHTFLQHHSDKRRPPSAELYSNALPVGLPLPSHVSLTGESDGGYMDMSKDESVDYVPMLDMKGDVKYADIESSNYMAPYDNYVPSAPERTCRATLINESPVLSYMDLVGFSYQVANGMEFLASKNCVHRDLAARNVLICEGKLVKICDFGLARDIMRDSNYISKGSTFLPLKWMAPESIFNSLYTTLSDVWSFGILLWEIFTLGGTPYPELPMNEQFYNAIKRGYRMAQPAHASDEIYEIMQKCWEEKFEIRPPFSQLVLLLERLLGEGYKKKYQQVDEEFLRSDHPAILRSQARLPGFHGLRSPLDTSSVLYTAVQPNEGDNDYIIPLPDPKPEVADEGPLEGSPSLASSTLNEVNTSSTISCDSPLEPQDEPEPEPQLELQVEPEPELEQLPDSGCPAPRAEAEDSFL", "conditions": "read-out: IC50 PDGFRβ phosphorylation in vitro assay; ref 17 Bello et al.; cited from earlier work"}, "RET": {"molecular_target": "RET (Homo sapiens, UniProt P07949)", "assay": "ELISA kinase assay RET", "assay_type": "biochemical"}, "EPH-A2": {"molecular_target": "EPH-A2 (Homo sapiens, UniProt P29317)", "sequence (P29317 613-875 limits assumed, species assumed)": "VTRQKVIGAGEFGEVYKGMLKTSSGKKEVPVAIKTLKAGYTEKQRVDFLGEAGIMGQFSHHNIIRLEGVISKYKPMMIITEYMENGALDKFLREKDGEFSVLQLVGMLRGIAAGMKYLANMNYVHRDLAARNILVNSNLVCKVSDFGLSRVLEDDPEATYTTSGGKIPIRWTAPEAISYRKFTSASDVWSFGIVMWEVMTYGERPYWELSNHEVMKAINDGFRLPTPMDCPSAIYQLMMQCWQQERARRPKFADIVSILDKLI", "assay": "ELISA kinase assay EPH-A2", "assay_type": "biochemical", "conditions": "IC50 EPHA2, ELISA"}, "[3]": {"system": "chicken chorioallantoic membrane", "assay": "Chicken chorioallantoic membrane assay", "assay_type": "in vivo", "conditions": "48 hrs"}, "VEGFR2 [4]": {"molecular_target": "T3, VEGFR2 (Homo sapiens, UniProt P35968)", "assay": "Cellular VEGFR2 autophosphorylation reversible assay", "assay_type": "cell-based", "conditions": "HUVEC, 1 μmol/L for 4 hrs"}, "PDGFRα [5]": {"molecular_target": "T1, PDGFRα", "assay": "ELISA kinase assay PDGFRα", "assay_type": "biochemical"}, "[6]": {"assay": "Tissue distribution in tumour-bearing nude mice", "assay_type": "in vivo", "conditions": "for concentration at 21 day: nude, mouse, oral, 10 mg/kg"}, "[7]": {"system": "786-O renal carcinoma xenograft", "assay": "Tumour xenograft 786-O", "assay_type": "in vivo, nude mice", "conditions": "786-O model, dosages below 20 mg/kg"}, "HUVEC cells [8]": {"system": "HUVEC cells", "assay": "b-FGF-driven HUVEC proliferation", "assay_type": "cell-based", "conditions": "Homo sapiens, read-out: IC50 bFGF-driven HUVECs proliferation"}, "[9]": {"system": "16 different tumour cell lines", "assay": "Tumour cell lines proliferation in vitro", "assay_type": "cell-based", "conditions": "read-out: average IC50 against 16 tumour cell lines proliferation"}, "EPH-B2": {"molecular_target": "EPH-B2 (Homo sapiens, UniProt P29323)", "sequence (P29323 621-884 limits assumed, species assumed)": "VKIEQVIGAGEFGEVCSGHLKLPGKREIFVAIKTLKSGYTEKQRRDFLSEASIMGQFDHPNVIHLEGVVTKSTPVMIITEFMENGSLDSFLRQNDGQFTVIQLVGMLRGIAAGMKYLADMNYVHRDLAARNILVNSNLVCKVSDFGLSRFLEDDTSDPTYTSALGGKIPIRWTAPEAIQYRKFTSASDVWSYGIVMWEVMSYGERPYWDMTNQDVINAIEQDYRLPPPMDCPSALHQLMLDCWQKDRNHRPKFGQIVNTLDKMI", "assay": "ELISA kinase assay EPH-B2", "assay_type": "biochemical"}, "VEGFR1": {"molecular_target": "VEGFR1 (Homo sapiens, UniProt P17948)", "assay": "ELISA kinase assay VEGFR1", "assay_type": "biochemical"}, "[10]": {"assay": "Toxicity observed in panel of human xenograft models", "assay_type": "in vivo, nude mice", "conditions": "p.o., 5 days per week, 5–20 mg/kg"}, "VEGFR2 [11]": {"molecular_target": "T3, VEGFR2", "assay_type": "biochemical", "conditions": "pre-incubation 30 min., 100-fold dilution"}, "[12]": {"system": "Bxpc-3 pancreatic cancer xenograft", "assay": "Tumour xenograft Bxpc-3", "assay_type": "in vivo, nude mice", "conditions": "Bxpc-3 model, dosages below 20 mg/kg"}, "FGFR1 [13]": {"molecular_target": "T4, FGFR1 (Homo sapiens, UniProt P11362)", "assay": "biochemical"}, "FGFR1 [14]": {"molecular_target": "T4, FGFR1", "assay": "bFGF-induced FGFR1 autophosphorylation in HUVEC", "assay_type": "cell-based", "conditions": "b-FGF 25 ng/ml"}, "PDGFRβ [15]": {"molecular_target": "T2, PDGFRβ", "assay": "ELISA kinase assay PDGFRβ", "assay_type": "biochemical"}, "[16]": {"system": "renal carcinoma xenograft No.20090223", "assay": "Patient-derived renal carcinoma xenograft No.20090223", "assay_type": "in vivo, nude mice"}, "VEGFR2 [17]": {"molecular_target": "T3, VEGFR2", "assay_type": "biochemical", "conditions": "varying concentrations of ATP"}, "FGFR1 [18]": {"molecular_target": "T4, FGFR1", "conditions": "molecular assay, versus sorafenib"}, "c-Kit": {"molecular_target": "c-Kit (Homo sapiens, UniProt P10721)", "sequence (P10721 589-937 limits assumed)": "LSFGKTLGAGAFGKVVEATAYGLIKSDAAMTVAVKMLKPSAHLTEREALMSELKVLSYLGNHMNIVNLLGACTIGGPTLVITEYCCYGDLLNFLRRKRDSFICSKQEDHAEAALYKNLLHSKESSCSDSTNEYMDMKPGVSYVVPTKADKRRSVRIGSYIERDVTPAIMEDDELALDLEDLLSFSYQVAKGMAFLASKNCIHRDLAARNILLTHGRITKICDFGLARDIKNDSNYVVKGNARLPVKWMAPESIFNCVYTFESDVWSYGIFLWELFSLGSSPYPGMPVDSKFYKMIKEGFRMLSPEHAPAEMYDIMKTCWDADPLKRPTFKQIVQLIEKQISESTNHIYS", "assay": "ELISA kinase assay c-Kit", "assay_type": "biochemical"}, "VEGFR2 [19]": {"molecular_target": "T3, VEGFR2", "assay": "biochemical"}, "[20]": {"system": "renal carcinoma xenograft (No.213847)", "assay": "CD31 immunohistochemistry of tumour microvessels", "assay_type": "in vivo, nude mice", "conditions": "five consecutive days"}, "[21]": {"system": "renal carcinoma xenograft (No.213847)", "assay": "PDGFRβ immunohistochemistry of tumour pericytes", "assay_type": "in vivo, nude mice", "conditions": "5 days"}, "[22]": {"assay": "Plasma pharmacokinetics after p.o. administration", "assay_type": "in vivo, rats"}, "HUVEC cells [23]": {"system": "HUVEC cells", "assay": "VEGF-driven HUVEC proliferation", "assay_type": "cell-based", "conditions": "Homo sapiens, read-out: IC50 VEGF-driven HUVECs proliferation"}, "c-Src": {"molecular_target": "c-Src (Homo sapiens, UniProt P12931)", "sequence (P12931 270-523 limits assumed, species assumed)": "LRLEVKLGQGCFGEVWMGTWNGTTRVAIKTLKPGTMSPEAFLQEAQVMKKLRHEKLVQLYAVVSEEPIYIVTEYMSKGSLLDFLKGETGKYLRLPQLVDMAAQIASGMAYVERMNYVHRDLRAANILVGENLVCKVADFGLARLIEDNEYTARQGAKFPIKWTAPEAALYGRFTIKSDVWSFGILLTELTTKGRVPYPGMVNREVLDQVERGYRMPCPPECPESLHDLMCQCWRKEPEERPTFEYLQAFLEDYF", "assay": "biochemical"}, "VEGFR2 [24]": {"molecular_target": "T3, VEGFR2"}, "PDGFRβ [25]": {"molecular_target": "PDGFRβ (Mus musculus, UniProt P05622)", "sequence (P05622 32-1098)": "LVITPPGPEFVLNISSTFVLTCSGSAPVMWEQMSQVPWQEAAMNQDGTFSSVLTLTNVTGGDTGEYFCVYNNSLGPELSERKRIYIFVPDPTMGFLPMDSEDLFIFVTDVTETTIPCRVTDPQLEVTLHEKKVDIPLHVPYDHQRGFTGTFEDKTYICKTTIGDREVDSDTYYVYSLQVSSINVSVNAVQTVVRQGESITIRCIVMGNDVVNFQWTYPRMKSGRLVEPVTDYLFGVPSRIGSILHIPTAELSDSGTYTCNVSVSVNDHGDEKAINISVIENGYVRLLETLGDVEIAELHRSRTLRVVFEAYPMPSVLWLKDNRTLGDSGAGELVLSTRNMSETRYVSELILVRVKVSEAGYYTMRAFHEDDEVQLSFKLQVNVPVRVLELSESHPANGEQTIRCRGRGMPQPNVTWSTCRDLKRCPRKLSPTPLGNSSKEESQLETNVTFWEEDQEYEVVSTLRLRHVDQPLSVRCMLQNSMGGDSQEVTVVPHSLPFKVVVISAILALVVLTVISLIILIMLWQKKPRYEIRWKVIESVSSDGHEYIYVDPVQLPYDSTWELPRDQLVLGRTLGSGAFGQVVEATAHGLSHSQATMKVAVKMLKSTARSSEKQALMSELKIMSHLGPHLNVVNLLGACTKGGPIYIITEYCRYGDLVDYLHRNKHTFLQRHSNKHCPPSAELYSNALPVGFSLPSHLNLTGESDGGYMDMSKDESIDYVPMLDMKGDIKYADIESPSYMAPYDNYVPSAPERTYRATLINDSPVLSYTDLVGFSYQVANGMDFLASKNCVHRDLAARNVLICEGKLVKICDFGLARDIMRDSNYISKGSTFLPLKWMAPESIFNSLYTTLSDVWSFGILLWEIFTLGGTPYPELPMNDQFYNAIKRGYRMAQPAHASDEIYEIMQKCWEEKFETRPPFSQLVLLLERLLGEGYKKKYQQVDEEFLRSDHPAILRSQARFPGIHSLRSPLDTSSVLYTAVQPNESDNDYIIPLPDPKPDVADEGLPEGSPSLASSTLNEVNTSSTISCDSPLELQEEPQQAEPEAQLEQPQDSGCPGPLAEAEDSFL", "assay": "PDGFBB-induced PDGFRβ autophosphorylation in Swiss3T3", "assay_type": "cell-based, rat"}, "ERK1/2 and AKT": {"system": "ERK1/2 and AKT", "assay": "VEGF-induced activation of ERK1/2 and AKT", "assay_type": "cell-based", "conditions": "VEGF165 50 ng/ml"}, "[26]": {"system": "renal carcinoma xenograft No.213847", "assay": "Patient-derived renal carcinoma xenograft No.213847", "assay_type": "in vivo, nude mice"}, "[27]": {"conditions": "day 21 versus first administration"}}, "note": "“Also recorded” adds a separate entry of the source. Like-named read-outs stand apart in the source and are kept apart here."}
{"smiles": "CNC(=O)c1cccc2cc(Oc3ccnc4cc(OCC5(N)CC5)c(OC)cc34)ccc12", "note": "[AL3810, 6-[[7-[(1-aminocyclopropyl)methoxy]-6-methoxy-4-quinolyl]oxy]-N-methyl-naphthalene-1-carboxamide]", "values": [{"measurement": "IC50", "setting": "PDGFRα [1]", "value": 175, "unit": "nM"}, {"measurement": "IC50", "setting": "PDGFRβ [2]", "value": 525, "unit": "nM"}, {"measurement": "IC50", "setting": "RET", "value": 200, "unit": "nM"}, {"measurement": "IC50", "setting": "EPH-A2", "value": 6660, "unit": "nM"}, {"measurement": "inhibition rate of blood vessel numbers and branching", "setting": "[3]; 0.3 nmol/egg", "value": 45.4, "unit": "%"}, {"measurement": "inhibition rate of blood vessel numbers and branching", "setting": "[3]; 1 nmol/egg", "value": 82.5, "unit": "%"}, {"measurement": "VEGFR2 phosphorylation after inhibitor washout", "setting": "VEGFR2 [4]; 6 hrs after removal", "value": "recovered substantially"}, {"measurement": "VEGFR2 phosphorylation after inhibitor washout", "setting": "VEGFR2 [4]; 24 hrs after washout", "value": "total restoration"}, {"measurement": "IC50", "setting": "PDGFRα [5]", "value": 13, "unit": "nM"}, {"measurement": "exposure in liver, improvement versus first administration", "setting": "[6]; [27]", "value": 1.6, "unit": "times"}, {"measurement": "exposure in lung, improvement versus first administration", "setting": "[6]; [27]", "value": 1.4, "unit": "times"}, {"measurement": "exposure in renal tissue, improvement versus first administration", "setting": "[6]; [27]", "value": 2.1, "unit": "times"}, {"measurement": "exposure in tumours, improvement versus first administration", "setting": "[6]; [27]", "value": 2.9, "unit": "times"}, {"measurement": "concentration at 21 day", "setting": "[6]; kidney", "value": 398, "unit": "ng/g"}, {"measurement": "concentration at 21 day", "setting": "[6]; liver", "value": 276, "unit": "ng/g"}, {"measurement": "concentration at 21 day", "setting": "[6]; lung", "value": 208, "unit": "ng/g"}, {"measurement": "concentration at 21 day", "setting": "[6]; plasma", "value": 7.8, "unit": "ng/mL"}, {"measurement": "concentration at 21 day", "setting": "[6]; tumour", "value": 403, "unit": "ng/g"}, {"measurement": "tumour response", "setting": "[7]", "value": "tumour regression"}, {"measurement": "IC50", "setting": "HUVEC cells [8]", "value": 140, "unit": "nM"}, {"measurement": "IC50", "setting": "[9]", "value": "~18700", "unit": "nM"}, {"measurement": "IC50", "setting": "EPH-B2", "value": 902, "unit": "nM"}, {"measurement": "IC50", "setting": "VEGFR1", "value": 12, "unit": "nM"}, {"measurement": "toxicity in xenograft-bearing mice", "setting": "[10]", "value": "no obvious toxicity observed"}, {"measurement": "reversibility of VEGFR2 inhibition", "setting": "VEGFR2 [11]", "value": "reversible inhibitor"}, {"measurement": "tumour response", "setting": "[12]", "value": "tumour regression"}, {"measurement": "IC50", "setting": "FGFR1 [13]", "value": 7, "unit": "nM"}, {"measurement": "bFGF-induced FGFR1 autophosphorylation / activation", "setting": "FGFR1 [14]", "value": "blocked"}, {"measurement": "IC50", "setting": "PDGFRβ [15]", "value": 8, "unit": "nM"}, {"measurement": "T/C", "setting": "[16]; No.20090223, 5 mg/kg p.o., 5 days per week", "value": 13.3, "unit": "%"}, {"measurement": "tumour response", "setting": "[16]; No.20090223, 10–20 mg/kg", "value": "tumour regression"}, {"measurement": "mode of inhibition versus ATP", "setting": "VEGFR2 [17]", "value": "ATP competitive"}, {"measurement": "IC50 against FGFR lower than sorafenib", "setting": "FGFR1 [18]", "value": 25, "unit": "fold"}, {"measurement": "IC50", "setting": "c-Kit", "value": 527, "unit": "nM"}, {"measurement": "IC50", "setting": "VEGFR2 [19]", "value": 4, "unit": "nM"}, {"measurement": "reduction of vessel density (CD31)", "setting": "[20]; 5 mg/kg", "value": 45, "unit": "%"}, {"measurement": "reduction of vessel density (CD31)", "setting": "[20]; 10 mg/kg", "value": 80, "unit": "%"}, {"measurement": "reduction of vessel density (CD31)", "setting": "[20]; 20 mg/kg", "value": 90, "unit": "%"}, {"measurement": "reduction of PDGFRβ positive cells", "setting": "[21]; 5 mg/kg", "value": 52, "unit": "%"}, {"measurement": "reduction of PDGFRβ positive cells", "setting": "[21]; 10 mg/kg", "value": 73, "unit": "%"}, {"measurement": "reduction of PDGFRβ positive cells", "setting": "[21]; 20 mg/kg", "value": 86, "unit": "%"}, {"measurement": "bioavailability", "setting": "[22]; rat, in vivo, po", "value": 31, "unit": "%"}, {"measurement": "Tmax", "setting": "[22]; rat, plasma, po, 10 mg", "value": 6, "unit": "h"}, {"measurement": "concentration at 24 hrs", "setting": "[22]; rat, plasma, po, 10 mg", "value": "< 50", "unit": "ng/mL"}, {"measurement": "maximal plasma concentration", "setting": "[22]; rats, 10 mg p.o.", "value": "~1000", "unit": "ng/mL"}, {"measurement": "IC50", "setting": "HUVEC cells [23]", "value": 42, "unit": "nM"}, {"measurement": "IC50", "setting": "c-Src", "value": 4900, "unit": "nM"}, {"measurement": "Tyr996 phosphorylation of VEGFR2", "setting": "VEGFR2 [24]", "value": "inhibited"}, {"measurement": "VEGFR2 autophosphorylation", "setting": "VEGFR2 [24]", "value": "almost completely blocked"}, {"measurement": "PDGFBB-induced PDGFRβ autophosphorylation", "setting": "PDGFRβ [25]; 100 nmol/l, Swiss3T3, PDGF-BB 40 ng/ml", "value": "inhibited; also recorded: almost completely block"}, {"measurement": "VEGF-induced activation of ERK1/2 and AKT", "setting": "ERK1/2 and AKT", "value": "dramatically inhibited"}, {"measurement": "T/C", "setting": "[26]; No.213847, 5 mg/kg p.o., 5 days per week", "value": 9.01, "unit": "%"}, {"measurement": "tumour response", "setting": "[26]; No.213847, 10–20 mg/kg", "value": "tumour regression"}]}
{"smiles": "CNC(=O)c1cc(Oc2ccc(NC(=O)Nc3ccc(Cl)c(C(F)(F)F)c3)cc2)ccn1", "note": "[Sorafenib, reference compound]", "values": [{"measurement": "IC50", "setting": "HUVEC cells [8]", "value": 2260, "unit": "nM"}, {"measurement": "bFGF-induced FGFR1 autophosphorylation / activation", "setting": "FGFR1 [14]", "value": "potent inhibitory effects"}, {"measurement": "IC50", "setting": "HUVEC cells [23]", "value": 337, "unit": "nM"}, {"measurement": "PDGFRβ activation", "setting": "PDGFRβ [25]; Swiss3T3, concentration not stated", "value": "potent inhibitory effects"}]}
